From patent publication US8536157B2, “Non-steroidal compounds” (The University of Melbourne, priority 2007, dated 2013)

What was measured:
[1] = tested on: human airway smooth muscle (HASM) cells; assay: Proliferation of human airway smooth muscle cells in response to thrombin (cell counting); format: cell-based; settings: given as Log IC50 (negative values), thrombin 0.3 U/ml, 48 h, compound pre-incubated 30 minutes
Source text: 3. Effects of Compounds on the Proliferation of Cells in Response to the Proliferative Stimulus of Either Thrombin (Human Airway Smooth Muscle) or Basic Fibroblast Growth Factor (bFGF)(Human Lung Parenchymal Fibroblasts, pFb)
The effects of compounds of the present invention on the proliferation of cells in response to the proliferative stimulus of either thrombin (human airway smooth muscle) or basic fibroblast growth factor (bFGF)(human lung parenchymal fibroblasts, pFb) were investigated. Cells were seeded onto 6-well plates at a density of 1.5×10^4 cells cm^2, made quiescent by removal of serum-containing media for 24 hours and then stimulated for 48 h with either thrombin (0.3 U/ml) or bFGF (300 pM). The test compounds were pre-incubated with HASM or pFb cells for 30 minutes before the addition of thrombin. At the end of the 48 hour incubation period, cells were detached from the culture plate by trypsin (0.5% w/v in PBS containing 1 mM EDTA), incubated for 5 minutes at ambient temperature in PBS containing 0.5% (w/v) trypan blue, washed twice (2% FCS in PBS), isolated by centrifugation (12,000×g, 5 min) and resuspended in 200 μl 2% FCS in PBS for counting in a haemocytometer chamber.
Human airway smooth muscle (HASM) cells were cultured from macroscopically normal bronchi (0.5-2 cm diameter) obtained from lung resection or heart-lung transplant specimens provided by the Alfred Hospital (Melbourne) according to methods published in detail previously (Fernandes et al., 1999).
Approximately 0.1 g of smooth muscle was stripped from the wall of the bronchus for each cell culture. Dissected tissue was immersed in Dulbecco's modified Eagle's medium (DMEM) (Flow Laboratories, Scotland), supplemented with 100 U/mL penicillin G (CSL, Australia) and 100 μg/mL streptomycin (CSL, Australia). The tissue was rinsed in phosphate buffered saline (PBS; Oxoid, England) and the airway smooth muscle was chopped into 2 mm^3 pieces and digested for 2 hours in DMEM containing elastase (0.5 mg/mL: Worthington Biochemical, USA) followed by a 12 hour incubation in DMEM containing collagenase (1 mg/mL) (Worthington Biochemical, USA), at 37° C. with agitation.
The resulting cell suspension was centrifuged and washed three times in phosphate buffered saline (PBS). Following the last centrifugation step, the cells were resuspended in 25 mL of DMEM supplemented with L-glutamine (2 mM: Sigma, USA), penicillin G (100 U/mL), streptomycin (100 μg/mL), amphotericin B (2 μg/mL: Wellcome, UK) and heat-inactivated FCS (10% v/v: CSL, Australia) and seeded into 25 cm^2 culture flasks. The primary isolates were incubated for 7 to 14 days to reach confluence. […]

[2] = molecular target: proteins in rat lung membranes; assay: Competitive binding assay with [3H]-CP2117 on rat lung membranes (RLM); settings: given as Log IC50 (negative values); displacement of 10 nM [3H]-CP2117, overnight at 4° C.; ND- not detected
[3] = tested on: PGE2 release in U937 cells; assay: PGE2 release from PMA-treated U937 cells (radioimmunoassay); format: cell-based, human; settings: 24 hour incubation; for activity at 1 µM: Homo sapiens, U-937, 24 h, read-out: Effects on PGE2 release in U937 cells at 1 μM as a % of PMA control, mean
Procedure: The U937 monocytic cell line (available from the ATCC, USA) is commonly used to evaluate anti-inflammatory agents. In the present experiment, U937 cells maintained in culture in a medium comprising RPMI containing (5% FCS v/v; supplemented with 100 U/ml penicillin, and […] streptomycin) were treated with phorbol myristate acetate (10 nM) then immediately dispersed into a 24 well cell culture plate at a concentration of 2×10^5 cells per ml in a volume of 1 ml per well. After 24 hours by which time the cells had adhered to the plastic substrate, they were treated with one of several analogues or with the vehicle of 0.1% DMSO. After a further 24 hour incubation period the supernatant was harvested and the content of prostaglandin E2 was measured by a radioimmunoassay, as described by Vlahos, R., & Stewart, A. G. (1999). (“Interleukin-1α and Tumour necrosis factor-α inhibit airway smooth muscle DNA synthesis by a glucocorticoid-sensitive induction of cyclo-oxygenase-2. British Journal of Pharmacology, 126, 1315-1324). […] The data in the table are presented as percentage of the control level of Prostaglandin E2.
Several analogues were evaluated for their actions on the release of PGE2 from the human U937macrophage cell line. Cells were stimulated by exposure to PMA 1 nM and after a period allowed for adherence of cells to the plastic culture dish, the cell were treated with one of several CP analogues. […] The chemical structures of CP1-56 and CP1-58 are as follows: […]

[4] = tested on: PGE2 release in J774 macrophages; assay: PGE2 release from LPS/IFNγ-stimulated J774 macrophages (radioimmunoassay); format: cell-based, murine; settings: Mus musculus, J774, 24 h, 30 min pre-treatment, 24 hour incubation; for activity at 1 µM: read-out: Effects on PGE2 release in J774 macrophages at 1 μM as a % of LPS/IFNγ control, mean; for activity at 10 µM: l0 μM, read-out: Effects on PGE2 release in J774 macrophages at l0 μM as a % of LPS/IFNγ control, mean
[5] = tested on: LPS-induced pulmonary inflammation in mice; assay: Model of pulmonary inflammation induced by intra-nasal delivery of LPS; format: in vivo; settings: CP933 150 mg/kg ip, dexamethasone 1 mg/kg ip, 2 hours after intranasal LPS
Procedure: The effect of the compounds of the present invention on BAL cell number, total BAL protein and inflammatory gene expression may be analysed. As an example, female Balb/c mice (17-21 g) may be given a single intraperitoneal (i.p.) injection of vehicle or CP92 (150, 50, 15 and 5 mg/kg in peanut oil DMSO). Two hours after the mice would be anaesthetised with methoxyflurane and a droplet of LPS (1 μg in saline) or sterile saline would be applied to the nose. As the animals breathe through their nose, the LPS or saline would be inhaled and gain access to the lung tissue. Twenty four hours post-LPS administration, mice would be euthanized with a mixture of 200 μl ketamine and 10 μl xylazine i.p., tracheotomised and bronchoalveolar lavage (BAL) performed for the assessment of cell number, cell type and protein content. The lungs would be removed and weighed as an indicator of any adverse effects of the drug treatment. Total RNA would be isolated from the lung tissues for analysis of gene expression (mRNA) using RT-PCR.

Compound | Log IC50 RLM binding [2] | activity at 1 µM [3] | further results
COc1cc(I)c(C(C)=NOCc2ccc([N+](=O)[O-])cc2)cc1O [CP30220-minor (Z-), 5′-Hydroxy-2′-iodo-4′-methoxyacetophenone O-4-Nitrobenzyl Oxime] | – | – | IC50 [1]: 38.9 nM
COc1cc(/C(C)=N/OCc2ccc3nonc3c2)ccc1O [AA-1-56] | −6.21 | 16% | –
COc1ccc(/C(C)=N/OCc2ccc3nonc3c2)cc1OC [AA-1-58] | −4.74 | 111% | –
COc1ccc(/C(C)=N/OCc2ccc([N+](=O)[O-])cc2)cc1 [CP30253, (E)-4′-Methoxyacetophenone O-4-Nitrobenzyl Oxime] | – | – | activity at 1 µM [4]: 47%; activity at 10 µM [4]: 4%; melting point: 88.2 to 89.5 °C
COc1ccc(/C(C)=N/OCc2ccc3nonc3c2)cc1O [AA-1-80] | −6.33 | 38% | –
COc1cc(-c2ccc(NC(=O)OC(C)(C)C)cc2)c(/C(C)=N/OCc2ccc([N+](=O)[O-])cc2)cc1O [CP30342, (E)-2′-(4-tert-Butoxycarbonylaminophenyl)-5′-hydroxy-4′-methoxyacetophenone O-4-Nitrobenzyl Oxime] | −6.79 | – | activity at 1 µM [4]: 19%; activity at 10 µM [4]: 0%; melting point: 91 to 96.8 °C
COc1ccc(/C(C)=N/OCc2ccc3nonc3c2)cc1 [AA-1-54] | – | 76% | –
COc1cc2c(cc1OS(N)(=O)=O)C(=NOCc1ccc([N+](=O)[O-])cc1)C(C)(C)CC2 [AA-1-79] | −4.58 | 113% | –
COc1cc(-c2ccc(C)cc2)c(/C(C)=N/OCc2ccc([N+](=O)[O-])cc2)cc1O [CP30345, (E)-5′-Hydroxy-4′-methoxy-2′-(4-methylphenyl)acetophenone O-4-Nitrobenzyl Oxime] | −6.33 | – | activity at 1 µM [4]: 76%; activity at 10 µM [4]: 1%; melting point: 105.9 to 108.7 °C
CCC(=NOCc1ccc([N+](=O)[O-])cc1)c1cc(O)c(OC)cc1I [CP30222, 5′-Hydroxy-2′-iodo-4′-methoxypropiophenone O-4-Nitrobenzyl Oxime] | – | – | IC50 [1]: 8.32 nM
CCC(=NOCc1ccc([N+](=O)[O-])cc1)c1ccc(OC)c(O)c1 [CP30221, 3′-Hydroxy-4′-methoxypropiophenone O-4-Nitrobenzyl Oxime] | – | – | IC50 [1]: 2880 nM
COc1ccc(/C(C)=N/OCc2ccc(C#N)cc2)cc1O [CP30283, (E)-3′-Hydroxy-4′-methoxyacetophenone O-4-Cyanobenzyl Oxime] | −6.05 | – | melting point: 125.9 to 129.7 °C
COc1cc(-c2ccc(C(F)(F)F)cc2)c(/C(C)=N/OCc2ccc([N+](=O)[O-])cc2)cc1O [CP30346, (E)-2′-(4-Trifluoromethylphenyl)-5′-hydroxy-4′-methoxyacetophenone O-4-Nitrobenzyl Oxime] | −5.99 | – | activity at 1 µM [4]: 78%; activity at 10 µM [4]: 34%; melting point: 111.5 to 114.1 °C
COc1ccc(/C(C)=N/OCc2cc(F)cc(F)c2)cc1O [CP30274, (E)-3′-Hydroxy-4′-methoxyacetophenone O-3,5-Difluorobenzyl Oxime] | −6.86 | – | melting point: 47.7 to 50.2 °C
COc1cc([C@H]2CC[C@@](C)(CO)CC2)c(C(C)=NOCc2ccc([N+](=O)[O-])cc2)cc1O [CP30451, 2′-(4-hydroxymethyl-4-methyl)cyclohexyl-5′-hydroxy-4′-methoxyacetophenone O-4-Nitrobenzyl Oxime] | −5.73 | 67% | –
COc1cc2c(cc1O)/C(=N/OCc1ccc([N+](=O)[O-])cc1)C(C)(C)CC2 [AA-1-39-2] | −6.19 | 100% | –
COC(=O)c1ccc(CO/N=C(\C)c2ccc(OC)c(O)c2)cc1 [CP30263, (E)-3′-Hydroxy-4′-methoxyacetophenone O-4-Carbomethoxybenzyl Oxime] | −6.46 | – | melting point: 97.7 to 98.7 °C
Brc1cc2c(cc1/C=N/OCc1ccccc1)OCO2 [Compound 10-OK-07a] | −4.76 | 114% | –
C/C(=N\OCc1ccc2nonc2c1)c1ccc2c(c1)OCO2 [AA-1-55] | – | 90% | –
COc1ccc(/C(C)=N/OCc2cccc(F)c2)cc1F [CP9125, 3′-Fluoro-4′-methoxyacetophenone-O-3-fluorobenzyloxime] | −5.5 | – | melting point: 67 °C
COc1ccc(C(C)=NOCc2ccc3nonc3c2)cc1OS(N)(=O)=O [AA-1-81] | −5.25 | 43% | –
COc1cc([C@H]2CC[C@](C)(CO)CC2)c(C(C)=NOCc2ccc([N+](=O)[O-])cc2)cc1O [CP30450A, 2′-(4-hydroxymethyl-4-methyl)cyclohexyl-5′-hydroxy-4′-methoxyacetophenone O-4-Nitrobenzyl Oxime] | −5.81 | 80% | –
COc1cc(/C(C)=N/OCc2ccc3nonc3c2)ccc1OS(N)(=O)=O [AA-1-78] | −4.87 | 19% | –
COc1cc([C@H]2CC[C@](C)(CO)CC2)c(C(C)=NOCc2ccc3nonc3c2)cc1O [CP30452, 2′-(4-Hydroxymethyl-4-methyl)cyclohexyl-5′-hydroxy-4′-methoxyacetophenone O-(benzofurazan-5-yl)methyl Oxime] | −5.54 | 89% | –
COc1cc([C@H]2CC[C@](C)(CO)CC2)c(C(C)=NOCc2ccc([N+](=O)[O-])cc2)cc1O [CP30450B, 2′-(4-hydroxymethyl-4-methyl)cyclohexyl-5′-hydroxy-4′-methoxyacetophenone O-4-Nitrobenzyl Oxime] | −5.85 | – | Effects on PGE2 release in U937 cells at 1 μM as a % of PMA control, mean [3]: 77 % of PMA control
COc1ccc(/C(C)=N/OCc2ccc3nonc3c2)cc1O [CP933, 1-(3-hydroxy-4-methoxyphenyl)ethanone-O-[(benzo[c][1,2,5]oxadiazol-5-yl)methyl]oxime] | −6.185 | – | activity at 1 µM [4]: 109%; activity at 10 µM [4]: 87%; Airspace (pulmonary) neutrophilia ([5]; FIG. 1A): attenuated the airspace neutrophilia; Protein in the broncho-alveolar lavage (BAL) fluid ([5]; FIG. 1B): reduced accumulation of protein
C/C(=N\OCc1ccc2nonc2c1)c1ccccc1 [AA-1-53] | – | 91% | –
